# Laboratory results as given in patent US20240336601A1 (Chulalongkorn University, priority 2020, published 2024).
# Molecular target: interaction between PD-1 and PD-L1 (Homo sapiens, UniProt Q9NZQ7)
# Assay: PD-1/PD-L1 protein-protein interaction assay (ALPHA)
# Type: binding
# Conditions: 2 nM His-tagged human PD-L1, 0.6 nM PD-1-Fc, AlphaScreen
# Chain of interaction between PD-1 and PD-L1 (Q9NZQ7 19-238 limits assumed): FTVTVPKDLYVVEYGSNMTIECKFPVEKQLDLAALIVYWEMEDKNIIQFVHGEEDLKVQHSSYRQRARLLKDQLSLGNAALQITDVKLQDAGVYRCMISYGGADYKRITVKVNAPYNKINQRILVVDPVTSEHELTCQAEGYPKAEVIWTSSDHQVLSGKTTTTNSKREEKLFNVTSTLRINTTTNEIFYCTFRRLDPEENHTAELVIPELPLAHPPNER
row,IC50,Structure (SMILES)
1,> 100 nM,"COc1cc(-n2ccc3c(-c4ccc5c(c4)OCCO5)cccc32)cc(OC)c1CN1C[C@H](O)C[C@@H]1C(=O)O [Example 2, (2R,4R)-1-(4-(4-(2,3-dihydrobenzo[b][1,4]dioxin-6-yl)-1H-indol-1-yl)-2,6-dimethoxybenzyl)-4-hydroxypyrrolidine-2-carboxylic acid]"
2,> 100 nM,"COc1cc(-n2ccc3c(-c4ccc5c(c4)OCCO5)cccc32)cc(OC)c1CNCCNC(C)=O [Example 3, N-(2-((4-(4-(2,3-dihydrobenzo[b][1,4]dioxin-6-yl)-1H-indol-1-yl)-2,6-dimethoxybenzyl)amino)ethyl)acetamide]"
3,> 100 nM,"CC(CO)(NCc1ccc(-n2ccc3c(-c4ccc5c(c4)OCCO5)cccc32)cc1OCc1cccc(C#N)c1)C(=O)O (stereo not shown) [Example 5, 2-((2-((3-cyanobenzyl)oxy)-4-(4-(2,3-dihydrobenzo[b][1,4]dioxin-6-yl)-1H-indol-1-yl)benzyl)amino)-3-hydroxy-2-methylpropanoic acid]"
4,> 100 nM,"N#Cc1cccc(COc2cc(-n3ccc4c(-c5ccc6c(c5)OCCO6)cccc43)ccc2CNCCO)c1 [Example 6, 3-((5-(4-(2,3-dihydrobenzo[b][1,4]dioxin-6-yl)-1H-indol-1-yl)-2-(((2-hydroxyethyl)amino)methyl)phenoxy)methyl)benzonitrile]"
5,> 100 nM,"COc1cc(C(=O)n2ccc3c(-c4ccc5c(c4)OCCO5)cccc32)cc(OC)c1CNC(C)(CO)C(=O)O (stereo not shown) [Example 7, 2-((4-(4-(2,3-dihydrobenzo[b][1,4]dioxin-6-yl)-1H-indole-1-carbonyl)-2,6-dimethoxybenzyl)amino)-3-hydroxy-2-methylpropanoic acid]"
6,> 100 nM,O=C(O)[C@H](CO)NCc1ccc(-n2ccc3c(-c4ccc5c(c4)OCCO5)cccc32)nc1 [Example 9]
7,> 100 nM,COc1nc(-n2ccc3c(-c4ccc5c(c4)OCCO5)cccc32)ccc1CN[C@@H](CO)C(=O)O [Example 10]
8,> 100 nM,"COc1nc(-n2ccc3c(-c4ccc5c(c4)OCCO5)cccc32)ccc1CN1CC(C)(O)C1 [Example 12, ((6-(4-(2,3-dihydrobenzo[b][1,4]dioxin-6-yl)-1H-indol-1-yl)~2~methoxypyridin-3-yl)methyl)-L-serine]"
9,> 100 nM,COc1cc(-n2ccc3c(-c4ccc5c(c4)OCCO5)cccc32)cc(OC)c1CNC1CNC(=O)C1 (stereo not shown) [Example 16]
10,> 100 nM,COc1cc(CNC[C@@H]2CCC(=O)N2)cc(-n2ccc3c(-c4ccc5c(c4)OCCO5)cccc32)c1 [Example 19]
11,10 to 100 nM,COc1cc(-c2cn(C)c3c(-c4ccc5c(c4)OCCO5)cccc23)cc(OC)c1CNC[C@@H]1CCC(=O)N1 [Example 23]
12,> 100 nM,COc1cc(-c2c[nH]c3c(-c4ccc5c(c4)OCCO5)cccc23)cc(OC)c1CNC[C@@H]1CCC(=O)N1 [Example 24]
13,> 100 nM,Cn1cc(-n2ccc3c(-c4ccc5c(c4)OCCO5)cccc32)c2ncc(CNCC(C)(C)C(=O)O)cc21 [Example 25]
14,> 100 nM,"COc1cc(-n2ccc3c(-c4cccc(NC(=O)c5ccc(CNC(C)(CO)C(=O)O)cc5)c4C)cccc32)cc(OC)c1CNC(C)(CO)C(=O)O (stereo not shown) [Example 56, 2-((4-((3-(1-(4-(((2-carboxy-1-hydroxypropan-2-yl)amino)methyl)-3,5-dimethoxyphenyl)-1H-indol-4-yl)-2-methylphenyl)carbamoyl)benzyl)amino)-3-hydroxy-2-methylpropanoic acid]"
15,> 100 nM,"Cn1c(CN[C@@H](CO)C(=O)O)cc2ccc(-n3ccc4c(-c5ccc6c(c5)OCCO6)cccc43)cc21 [Example 57, (S)-2-(((4-(2,3-dihydrobenzo[b][1,4]dioxin-6-yl)-1′-methyl-1′H-[1,6′-biindol]-2′-yl)methyl)amino)-3-hydroxypropanoic acid]"
16,> 100 nM,"COc1nc(-n2ccc3c(-c4ccc5c(c4)OCCO5)cccc32)ccc1CN1CC2(C1)CN(C(C)=O)C2 [Example 58, 1-(6-((6-(4-(2,3-dihydrobenzo[b][1,4]dioxin-6-yl)-1H-indol-1-yl)-2-methoxypyridin-3-yl)methyl)-2,6-diazaspiro[3.3]heptan-2-yl)ethanone]"
